# From patent US20240180888A1, “C5AR1 INHIBITORS FOR TREATING […] REACTIONS TO TAXANES” (Dompe' Farmaceutici SPA, priority 2021, published 2024)
# Entries after “also recorded” stand apart in the source; their conditions may differ.
# How the values were obtained:
# [1] = test system: RAW 264.7 mouse macrophages; assay: Proteome profiler cytokine release assay in RAW 264.7 macrophages; type: cell-based; conditions: stimulus C5a 10 nM or Paclitaxel 10 nM, 24 h; DF3966A 10 μM, anti C5aR Ab 50 nM, Avacopan 10 μM
# Procedure: RAW 264.7 (ATTC TIB-71) mouse macrophages were cultured following manufacturer's instructions using DMEM medium (Euroclone, MI, Italy) supplemented with 10% FBS (non-heat inactivated) (ATCC, USA) at 37° C., in a humidified 95% air-5% CO2 atmosphere and then were seeded at 1*10^4 cells/cm^2.
# (§1) After 24 hours, cells were treated with C5a (diluted in medium) (10 nM, R&D, USA), Paclitaxel (diluted in medium) (10 nM, Sigma, USA) in the absence and in the presence of the C5a inhibitor DF3966A (10 μM), and anti C5aR Ab (BioLegend, CA, USA; 50 nM) or Avacopan (10 μM) for 24 hours, then the media was replaced with culture media (5 ml) for 24 h and then collected.
# (§2) Conditioned media were centrifugated to remove particulates and assayed immediately. […] The reagents were prepared following manufacturer's protocols (R&D, USA). Briefly, the membranes were incubated with Array Buffer 6 for 1 hour on a rocking platform shaker. The samples were prepared by adding up to 1 ml of Array Buffer 4 in two separated tubes and then 15 microl of reconstituted mouse cytokine detection antibody cocktail (>40 mouse cytokines) to each prepared sample and incubated 1 hour. Then, the Array Buffer 6 was aspirated and replaced with the sample/antibody mixtures and incubated at 4° C. overnight. The following day, membranes were washed 3 times and Streptavidin-HRP (1:2000) was incubated for 30 minutes at room temperature on a rocking platform shaker. The membranes were washed again, and 1 ml of prepared Chemi Reagent mix was placed onto each membrane. Multiple exposure times were acquired using UVITEC digital analyzer (Alliance, Cambridge, UK).
# (§3) The positive signals seen in the developed membranes can be identified by placing the transparency overlay template on the array image and aligning it with pairs of reference spots in the three corners of each array (see FIG. 10). […] Pixel densities (average signals of pair of duplicates which represent each cytokine) were analyzed by ImageJ and the average background was subtracted from each spot.
# (§4) In details, the profiling of cytokines released (>40 cytokines) from RAW 264.7 and human macrophages challenged with paclitaxel (Sigma-Aldrich; 10 nM) or C5a (R&D Systems, Inc. MN, USA; 10 nM) for 24 h using a proteome profiler assay. […] The experimental assay is explained in example 4.
# (§5) For the human macrophages, human XL Cytokine Array kit #Ary022B was used, while for murine macrophages mouse cytokine Array Panel A #Ary006 was used (R&D systems, USA).
# [2] = test system: human (THP-1) macrophages; assay: Proteome profiler cytokine release assay in human macrophages; type: cell-based; conditions: human macrophages; stimulus C5a 10 nM or paclitaxel 10 nM, 24 h
# Procedure: as §1, §2, §3, §4, §5
# [3] = test system: paclitaxel-induced HSRs in mice; assay: Prevention of paclitaxel-induced HSRs in vivo by C5aR1 inhibition (Example 8); conditions: 30 mg/kg, os; for increment of serum concentration of complement 5b-9 (SC5b-9) / increment of serum concentration of histamine: pre-treatment, paclitaxel-treated mice, ELISA; for paclitaxel-induced increase of plasma extravasation / paclitaxel-induced increase of vascular leakage: DF3966A 3 h, Avacopan 1 h before paclitaxel 20 mg/kg iv in Cremophor EL
# Procedure: ) was intravenousely administrated at 20 mg/kg (0.1 mL/Kg) dissolved in Cremophor EL (polyoxyl 35 castor oil, Sigma-Aldrich, cod. 238470). […] Cremophor alone (Cremophor) was used as a control. […] Intracardiac injection was done to obtain blood in tubes and leaving it undisturbed at room temperature. Serum was separated from blood cells 30 minutes later by centrifugation (2000×g for 10 min, at 4° C.). Aliquots were prepared and stored at -20° C. ELISA kit was used to evaluate the following marker: histamine and SC5b-9 (Mybiosource, San Diego, USA Cat.No: MBS9361379, MBS725193).
SMILES,effect on C5a- and paclitaxel-induced cytokine release [1],effect on C5a- and paclitaxel-induced cytokine release [2],increment of serum concentration of complement 5b-9 (SC5b-9) [3],increment of serum concentration of histamine [3],paclitaxel-induced increase of plasma extravasation [3],paclitaxel-induced increase of vascular leakage [3]
"Cc1ccc(NC(=O)[C@H]2CCCN(C(=O)c3c(C)cccc3F)[C@H]2c2ccc(NC3CCCC3)cc2)cc1C(F)(F)F [Avacopan, (2R,3S)-2-[4-(Cyclopentylamino)phenyl]-1-(2-fluoro-6-methylbenzoyl)-N-[4-methyl-3-(trifluoromethyl)phenyl]piperidine-3-carboxamide]",inhibited; also recorded: counteracted,effectively counteracted,significatively reduced,significatively reduced,abolishing,abolishing
"C[C@H](c1ccc(Nc2nc(C(F)(F)F)cs2)cc1)c1nn[nH]n1 [DF3966A, 5-[(1R)-1-(4-{[4-(trifluoromethyl)-1,3-thiazol-2-yl]amino}phenyl)ethyl]tetrazol-2-ide]",inhibited; also recorded: counteracted,effectively counteracted,significatively reduced,significatively reduced,abolishing,abolishing
